This is an account of results in patent US7160897B2, “Therapeutic compounds” (SmithKline Beecham Corporation, priority 2000, dated 2007).

pIC50: −log10 of the molar value.

The assay has as its system HSV-1. The assay is described as follows: HSV-1 replication in Vero 76 cells, viral DNA hybridization capture assay. It counts as cell-based, herpes simplex virus 1. The following applies: Human alphaherpesvirus 1; HSV-1 infected Vero 76 cells, MOI=0.001, 40–48 hours incubation, HSV DNA detected by hybridization/chemiluminescence. The procedure: Vero 76 cells were maintained in MEM with Earle's salts, L-glutamine, 8% FBS (Hyclone, A-1111-L) and 100 units/mL Penicillin-100 μg/mL Streptomycin. For assay conditions, FBS was reduced to 2%. Cells are seeded into 96-well tissue culture plates at a density of 5×10^4 cells/well after being incubated for 45 min at 37° C. in the presence of HSV-1 or HSV-2 (MOI=0.001). Test compounds are added to the wells and the plates are incubated at 37° C. for 40–48 hours. Cell lysates are prepared as follows: media was removed and replaced with 150 μL/well 0.2 N NaOH with 1% Igepal CA 630 or NP-40. Plates were incubated up to 14 days at room temperature in a humidified chamber to prevent evaporation.
For the detection probe, a gel-purified, digoxigenin-labeled, 710-bp PCR fragment of the HSV UL-15 sequence was utilized. PCR conditions included 0.5 μM primers, 180 μM dTTP, 20 μM dUTP-digoxigenin (Boehringer Mannheim 1558706), 200 μM each of dATP, dCTP, and dGTP, 1×PCR Buffer II (Perkin Elmer), 2.5 mM MgCl2, 0.025 units/μL of AmpliTaq Gold polymerase (Perkin Elmer), and 5 ng of gel-purified HSV DNA per 100 μL. Extension conditions were 10 min at 95° C., followed by 30 cycles of 95° C. for 1 min, 55° C. for 30 sec, and 72° C. for 2 min. The amplification was completed with a 10-min incubation at 72° C. Primers were selected to amplify a 728 bp probe spanning a section of the HSV1 UL15 open reading frame (nucleotides 249–977). Single-stranded transcripts were purified with Promega M13 Wizard kits. The final product was mixed 1:1 with a mixture of 6 M GuSCN, 100 mM EDTA and 200 μg/mL herring sperm DNA and stored at 4° C.
The capture DNA plasmid (HSV UL13 region in pUC) was linearized by cutting with Xba I, denatured for 15 min at 95° C. and diluted immediately into Reacti-Bind DNA Coating Solution (Pierce, 17250, diluted 1:1 with TE buffer, pH 8) at 1 ng/μL 75 μL/well were added to Corning (#3922 or 9690) white 96-well plates and incubated at room temperature for at least 4 hrs before washing twice with 300 μL/well 0.2×SSC/0.05% Tween-20 (SSC/T buffer). The plates were then incubated overnight at room temperature with 150 μL/well 0.2 N NaOH, 1% IGEPAL and 10 μg/mL herring sperm DNA.
Twenty-seven (27) μL of cell lysate was combined with 45 μL of hybridization solution (final concentration: 3M GuSCN, 50 mM EDTA, 100 μg/ml salmon sperm DNA, 5× Denhardt's solution, 0.25×APE, and 5 ng of the digoxigenin-labeled detection probe). APE is 1.5 M NH4-acetate, 0.15 M ammonium phosphate monobasic, and 5 mM EDTA adjusted to pH 6.0. Mineral oil (50 μL) was added to prevent evaporation. The hybridization plates were incubated at 95° C. for 10 minutes to denature the DNA, then incubated at 42° C. overnight The wells were washed 6× with 300 μL/well SSC/T buffer then incubated with 75 μL/well anti-digoxigenin-HRP-conjugated antibody (Boehringer Mannheim 1207733, 1:5000 in TE) for 30 min at room temperature. The wells were washed 6× with 300 μL/well with PBS/0.05% Tween-20 before 75 μL/well SuperSignal LBA substrate (Pierce) was added. The plates were incubated at room temperature for 30 minutes and chemiluminescence was measured in a Wallac Victor reader.
The following results were obtained for HSV-1.
Usually pIC50 stands for the negative decadic logarithm of the IC50, by convention in mol/L. Read a low pIC50 as a high IC50. As for `Fc1ccc(-c2nn3ccc(Cl)cc3c2-c2ccnc(Nc3ccccc3)n2)cc1` [Example 6, 4-[5-Chloro-2-(4-fluorophenyl)pyrazolo[1,5-α]pyridin-3-yl]-N-phenyl-2-pyrimidinamine], the pIC50 is 4.85.

For the molecule `Fc1ccc(-c2nn3ccc(NC4CCCC4)cc3c2-c2ccnc(Nc3ccccc3)n2)cc1` [Example 7, N-[3-(2-Anilino-4-pyrimidinyl)-2-(4-fluorophenyl)pyrazolo[1,5-α]pyridin-5-yl]-N-cyclopentylamine], the pIC50 was 5.48. Molecule `Fc1ccc(Nc2nccc(-c3c(-c4ccc(F)cc4)nn4c(NC5CCCC5)cccc34)n2)cc1` [Example 4, N-Cyclopentyl-3-[2-(4-fluoroanilino)-4-pyrimidinyl]-2-(4-fluorophenyl)pyrazolo[1,5-α]pyridin-7-amine] had a pIC50 of 6.22. The value for `COc1ccc(-c2nn3c(NC4CCCC4)cccc3c2-c2ccnc(Nc3cccc(C(=O)c4ccccc4)c3)n2)cc1` [Example 5, [3-({4-[7-(Cyclopentylamino)-2-(4-methoxyphenyl)pyrazolo[1,5-α]pyridin-3-yl]-2-pyrimidinyl}amino)phenyl](phenyl)methanone] was 5.55. In turn, `COc1cc(Nc2nccc(-c3c(-c4ccc(F)cc4)nn4c(NC5CCCC5)cccc34)n2)cc(OC)c1OC` [Example 2, N-Cyclopentyl-2-(4-fluorophenyl)-3-[2-(3,4,5-trimethoxyanilino)-4-pyrimidinyl]pyrazolo[1,5-α]pyridin-7-amine] gave a pIC50 of 6.40. For `COc1ccc(-c2nn3c(NC4CCCC4)cccc3c2-c2ccnc(Nc3cccc([N+](=O)[O-])c3)n2)cc1` [Example 10, N-Cyclopentyl-2-(4-methoxyphenyl)-3-[2-(3-nitroanilino)-4-pyrimidinyl]pyrazolo[1,5-α]pyridin-7-amine], the pIC50 was 6.00. `COc1ccc(-c2nn3c(NC4CCCC4)cccc3c2-c2ccnc(Nc3cccc(CO)c3)n2)cc1` [Example 11, [3-({4-[7-(Cyclopentylamino)-2-(4-methoxyphenyl)pyrazolo[1,5-α]pyridin-3-yl]-2-pyrimidinyl}amino)phenyl]methanol] showed a pIC50 of 6.15.

For `CCSc1cc(Cl)cc2c(-c3ccnc(Nc4ccccc4)n3)c(-c3ccc(F)cc3)nn12` [Example 9, N-{4-[5-Chloro-7-(ethylsulfanyl)-2-(4-fluorophenyl)pyrazolo[1,5-α]pyridin-3-yl]-2-pyrimidinyl}-N-phenylamine], the negative-log IC50 (pIC50) is 5.70. Regarding `Fc1ccc(-c2nn3c(NC4CCCC4)cccc3c2-c2ccnc(Nc3ccccc3)n2)cc1` [Example 1, 3-(2-Anilino-4-pyrimidinyl)-N-cyclopentyl-2-(4-fluorophenyl)pyrazolo[1,5-α]pyridin-7-amine], the pIC50 was 6.30.

For the molecule `COc1ccc(Nc2nccc(-c3c(-c4ccc(F)cc4)nn4c(NC5CCCC5)cccc34)n2)cc1` [Example 3, N-Cyclopentyl-2-(4-fluorophenyl)-3-[2-(4-methoxyanilino)-4-pyrimidinyl]pyrazolo[1,5-α]pyridin-7-amine], the pIC50 is 5.90. The value for `COc1ccc(-c2nn3c(NC4CCCC4)cccc3c2-c2ccnc(Nc3cccc(N)c3)n2)cc1` [Example 12, N^1-{4-[7-(Cyclopentylamino)-2-(4-methoxyphenyl)pyrazolo[1,5-α]pyridin-3-yl]-2-pyrimidinyl}-1,3-benzenediamine] was 6.15; that for `COc1ccc(-c2nn3c(NC4CCCC4)cccc3c2-c2ccnc(Nc3cccc(N=[N+]=[N-])c3)n2)cc1` [Example 13, 3-[2-(3-Azidoanilino)-4-pyrimidinyl]-N-cyclopentyl-2-(4-methoxyphenyl)pyrazolo[1,5-α]pyridin-7-amine] was 6.10. For the molecule `Fc1ccc(-c2nn3c(NC4CCCC4)cc(Cl)cc3c2-c2ccnc(Nc3ccccc3)n2)cc1` [Example 8, 3-(2-Anilino-4-pyrimidinyl)-5-chloro-N-cyclopentyl-2-(4-fluorophenyl)pyrazolo[1,5-α]pyridin-7-amine], the pIC50 was 6.80.
